Results on eight compounds are retold here after ChEMBL document CHEMBL1201862, “PubChem BioAssay data set” (2004).

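Cultured in 96-well plates, cells were exposed to test compound for 48 hours across five concentrations. Here, GI50 denotes the concentration required for 50% inhibition of growth.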 Active and inactive are the calls of the source. Cut-off read from the data, not from the text of the source: active = GI50 up to about 1.1 µM and inactive = higher. A value given as a limit tells only on which side of the number the result lay.

Some test systems named below: HOP-62; MDA-MB-435; SF-539; SF-295; CAKI-1; TK-10; HCT-15; BT-549; OVCAR-4; KM12; NCI-H460; NCI-H522; UO-31; UACC-62; HL-60; SK-MEL-2; K562; COLO 205; SR.
What all share (assay): DTP human tumour cell line panel, 48 h

Turning to `COc1ccc(C2C(C#N)=C(S)N(C3OC(COC(C)=O)C(OC(C)=O)C(OC(C)=O)C3OC(C)=O)C(c3ccccc3)=C2C(C)=O)cc1` (stereo not drawn), the GI50 with HOP-62 is > 100 µM (inactive); in the assay on MDA-MB-435, 33.6 µM (inactive); with SF-539 it was 76.7 µM (inactive); in the assay with SF-295 it was > 100 µM (inactive); with CAKI-1 it was > 100 µM (inactive); in the assay on TK-10, > 100 µM (inactive). Further, the GI50 was above 100 µM in the assay with HCT-15; > 100 µM (inactive) in the assay on BT-549; > 100 µM (inactive) in the assay on OVCAR-4; > 100 µM (inactive) with KM12; > 100 µM (inactive) in the assay on NCI-H460; 61.4 µM (inactive) in the assay on NCI-H522. Moreover, the GI50 in the assay with UO-31 is 21.6 µM (inactive); with UACC-62 it was 41.8 µM (inactive); with HL-60, 63.8 µM (inactive); in the assay with SK-MEL-2 it was > 100 µM (inactive); in the assay with K562, 37.5 µM (inactive); in the assay with COLO 205, > 100 µM (inactive).

For `CO/C(N)=C(C#N)/N=C/c1cccs1`, the GI50 is 98.4 µM (inactive) in the assay on HOP-62; 25.8 µM (inactive) in the assay with MDA-MB-435; 92.7 µM (inactive) in the assay with SF-539; > 100 µM (inactive) in the assay with SF-295; 24.3 µM (inactive) in the assay with CAKI-1; > 100 µM (inactive) in the assay with TK-10. The GI50 in the assay with HCT-15 was 45.7 µM; in the assay on BT-549, 95.1 µM (inactive); in the assay on OVCAR-4 it was > 100 µM (inactive); with KM12, > 100 µM (inactive); in the assay on NCI-H460 it was > 100 µM (inactive); in the assay with NCI-H522, 18.4 µM (inactive). Further, the GI50 was > 100 µM (inactive) with UO-31; 35.5 µM (inactive) in the assay with UACC-62; 22 µM (inactive) in the assay with HL-60; > 100 µM (inactive) in the assay on SK-MEL-2; 42.2 µM (inactive) in the assay on K562; 36.6 µM (inactive) with COLO 205.

Take `CCSc1cc(=O)n(C)c(=O)n1C`: the GI50 with HOP-62, with MDA-MB-435, in the assay with SF-539, with SF-295, in the assay on CAKI-1 and with TK-10 was > 100 µM (inactive) throughout. Further, the GI50 was above 100 µM in the assay with HCT-15; > 100 µM (inactive) with BT-549; > 100 µM (inactive) with OVCAR-4; > 100 µM (inactive) with KM12; > 100 µM (inactive) in the assay on NCI-H460; > 100 µM (inactive) with NCI-H522. Also, the GI50 with UO-31, with UACC-62, with HL-60, in the assay on SK-MEL-2 and in the assay with COLO 205 was > 100 µM (inactive) each time.

For `CCOC(=O)c1c(-c2ccc(Cl)cc2)c(C#N)c(=S)n(C2OC(COC(C)=O)C(OC(C)=O)C(OC(C)=O)C2OC(C)=O)c1-c1ccccc1` (stereo not drawn), the GI50 with HOP-62, in the assay with MDA-MB-435, with SF-539, with SF-295, in the assay with SR and in the assay on CAKI-1 was > 100 µM (inactive) each time. The GI50 in the assay on TK-10 was > 100 µM (inactive); in the assay with HCT-15, above 100 µM; with BT-549, > 100 µM (inactive); with OVCAR-4 it was > 100 µM (inactive); with KM12 it was > 100 µM (inactive); in the assay with NCI-H460 it was > 100 µM (inactive). Besides, the GI50 with UO-31, in the assay with UACC-62, with HL-60, with SK-MEL-2, with K562 and in the assay on COLO 205 was > 100 µM (inactive) in each case.

For the compound `Nc1ncnc2c1ccn2C/C=C\CO`, the GI50 in the assay on HOP-62, with MDA-MB-435, in the assay with SF-539, in the assay with SF-295, in the assay on CAKI-1 and in the assay on TK-10 was > 100 µM (inactive) each time. Further, the GI50 in the assay with HCT-15 is above 100 µM; with BT-549, > 100 µM (inactive); in the assay with OVCAR-4 it was > 100 µM (inactive); with KM12, > 100 µM (inactive); in the assay with NCI-H460, > 100 µM (inactive); in the assay with NCI-H522, 84.7 µM (inactive). The GI50 in the assay with UO-31, with UACC-62, with HL-60, with SK-MEL-2, in the assay with K562 and in the assay with COLO 205 was > 100 µM (inactive) throughout.

Regarding `C1CSCCSCCSCCSCCS1`, the GI50 with HOP-62, in the assay on MDA-MB-435, in the assay on SF-539, with SF-295, in the assay on CAKI-1 and in the assay with TK-10 was > 100 µM (inactive) throughout. Further, the concentration for 50% growth inhibition (GI50) was above 100 µM in the assay with HCT-15; > 100 µM (inactive) in the assay with BT-549; > 100 µM (inactive) in the assay with OVCAR-4; > 100 µM (inactive) in the assay on KM12; > 100 µM (inactive) with NCI-H460; > 100 µM (inactive) in the assay on NCI-H522. For the same compound, the GI50 in the assay with UO-31, with UACC-62, with HL-60, with SK-MEL-2, in the assay on K562 and with COLO 205 was > 100 µM (inactive) throughout.

As to `Cc1ccc(S(=O)(=O)n2ccn3c(=O)cc(C)nc23)cc1`, the GI50 in the assay on HOP-62, in the assay with MDA-MB-435, in the assay on SF-539, in the assay on SF-295, with SR and with CAKI-1 was > 10 µM (inactive) in each case. The GI50 in the assay with TK-10 is > 10 µM (inactive); in the assay on HCT-15, above 10 µM; with BT-549 it was > 10 µM (inactive); with OVCAR-4 it was > 10 µM (inactive); in the assay with KM12, > 10 µM (inactive); with NCI-H460, > 10 µM (inactive). For the same compound, the GI50 in the assay on UO-31, with UACC-62, with HL-60, in the assay with SK-MEL-2, in the assay with K562 and in the assay with COLO 205 was > 10 µM (inactive) each time.

On to `COc1nc(-c2c[nH]c3ccccc23)cnc1N`, for which the GI50 with HOP-62 was 48.9 µM (inactive); in the assay on MDA-MB-435 it was 23.4 µM (inactive); with SF-539, 33.7 µM (inactive); with SF-295, 29.4 µM (inactive); in the assay on SR, 15 µM (inactive); with CAKI-1 it was 24.6 µM (inactive). Besides, the GI50 in the assay on TK-10 was > 100 µM (inactive); in the assay on HCT-15 it was 22.8 µM; in the assay on BT-549 it was 33.7 µM (inactive); in the assay on OVCAR-4 it was 29.6 µM (inactive); with KM12, 9.18 µM (inactive); with NCI-H460 it was 26.4 µM (inactive). The GI50 is 21.2 µM (inactive) with UO-31; 16.4 µM (inactive) in the assay on UACC-62; 4.85 µM (inactive) in the assay on HL-60; 25 µM (inactive) with SK-MEL-2; 33.6 µM (inactive) with K562; 29 µM (inactive) with COLO 205.
